The target of one assay is T1, HSV-1 helicase-primase (Human herpesvirus 1, UniProt P10189+P10236).
T1 construct: made in house; host or cells: Sf21 insect cells triply infected with recombinant baculoviruses (UL5, UL8, UL52)
In words: HSV-1 DNA-dependent ATPase assay (inhibition of HSV-1 helicase-primase). It is filed as biochemical. The essentials: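 Holoenzyme (UL5/UL8/UL52) expressed in baculovirus-infected Sf21 cells and purified, used at 3 μg/mL with 4 mM ATP and 25 μM primed M13 ssDNA in HEPES pH 7.5, 5.5 mM MgCl2, 3.3% DMSO. Incubated 20 min at 34°. Released phosphate read by malachite green at 650 nm, and activity taken from net absorbance with versus without inhibitor.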

For a further assay, the system named is HSV-1 strain F or KOS. Kind of assay: Inhibition of herpes simplex virus (HSV-1) replication in cell culture (BHK-21 cells, glycoprotein C ELISA). It is filed as cell-based. The essentials:
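BHK-21 clone 13 cells infected with HSV-1 F or KOS at MOI 0.05 PFU/cell for 1 h at 37°, washed, then treated with compound in α-MEM/2% FBS for 24 h. Late glycoprotein C quantified by ELISA (mAb C11, HRP/OPD, 450 nm); EC50 from % inhibition.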

The test system of assay [1] is HCMV (strain AD169). In words: Inhibition of HCMV replication, ELISA assay (Hs-68 cells). The assay is classed as cell-based, Human Cytomegalovirus (HCMV). Particulars: read-out: ELISA CMV EC50. As to the method: (§1) C) Inhibition of Human Cytomegalovirus (HCMV) Replication
(§2) The effect of compounds on the replication of HCMV has been measured by using an ELISA-based assay (ELISA) and a plaque reduction assay (PRA).
Hs-68 cells (ATCC # CRL 1635) were seeded in 96 well microtiter plates at 10,000 cells/well in 100 μL of DMEM medium (Gibco Canada Inc.) supplemented with 10% fetal bovine serum (FBS, Gibco Canada Inc.). The plates were incubated for 3 days at 37° to allow the cells to reach 80-90% confluency prior to the assay.
The medium was removed from wells by aspiration. The cells then were infected at a multiplicity of infection (MOI) of 0.01 PFU/cell with 50 μL of HCMV (strain AD169, ATCC VR-538) in DMEM medium supplemented with 5% heat inactivated FBS (assay medium). The virus was allowed to adsorb to cells for 2 h at 37°. Following viral adsorption, the medium was removed from the wells by aspiration. The cells were washed twice with 200 μL of assay medium to remove unabsorbed virus. The cells were then incubated with or without 100 μL of appropriate concentrations of test reagent in assay medium. After 8 days of incubation at 37°, the extent of viral replication was determined by an ELISA assay which detects the late structural protein p28 of HCMV.
Eight days after infection, the medium was aspirated from the wells. Non-specific binding sites were blocked by adding 200 μL of phosphate buffered saline containing 1% (w/v) bovine serum albumin (blocking buffer) to each well and incubating the plates for 30 min at room temperature. After removal of the blocking buffer by aspiration, the cells were fixed with 100 μL of cold ethanol-acetone solution (95:5) per well. The plates were placed at -20° for 30 min. The plates were washed 4 times with phosphate buffered saline containing 0.05% (v/v) polyoxyethylene sorbitan monolaurate (Tween®). Thereafter, 100 μL of mAb UL99 (Advanced Biotechnologies Inc., #13-130-100) recognizing HCMV protein p28 was added to each wells and plates were incubated for 2 h at room temperature. The plates were washed four times with 200 μL of the above-noted phosphate buffered saline/Tween-20® solution. The cells were then incubated with 100 μL of sheep anti-mouse IgGγ horseradish peroxidase conjugated for 2 h at room temperature. The plates were then washed four times with 200 μL of above-noted phosphate buffered saline/Tween-20® solution. Thereafter, 100 μL of ortho phenylenediamine dihydrochloride (OPD, Gibco Canada Inc.) solution was added to each well and the plates were agitated on a microplate shaker for 30 min in the dark. Color development was monitored at 450 nm using a microplate spectrophotometer.
The SAS program was used to calculate the % inhibition of viral replication and to generate EC50 values.
The EC50 values obtained according to this assay method for certain thiazolylphenyl derivatives of this invention are listed in the following tables under the heading ELISA CMV.
In general terms: ELISA stands for enzyme-linked immunosorbent assay.

For assay [2], the system named is HCMV (strain AD169). In words: Inhibition of HCMV replication, plaque reduction assay (PRA, Hs-68 cells). The assay is classed as cell-based, Human Cytomegalovirus (HCMV). As to conditions: read-out: PRA CMV EC50. As to the method:
as §1, §2
Hs-68 cells (ATCC # CRL 1635) were seeded in 12-well plates at 83,000 cells/well in 1 mL of DMEM medium (Gibco Canada Inc.) supplemented with 10% fetal bovine serum (FBS, Gibco Canada Inc.). The plates were incubated for 3 days at 37° to allow the cells to reach 80-90% confluency prior to the assay.
The medium was removed from the cells by aspiration. The cells were then infected with approximately 50 PFU of HCMV (strain AD169, ATCC VR-538) in DMEM medium supplemented with 5% inactivated FBS (assay medium). The virus was allowed to adsorb to cells for 2 h at 37°. Following viral adsorption, the medium was removed from the wells by aspiration. The cells were then incubated with or without 1 mL of appropriate concentrations of test reagent in assay medium. After 4 days of incubation at 37°, the medium was exchanged with fresh medium containing test compound and 4 days later the cells were fixed with 1% aqueous formaldehyde and stained with a 2% crystal violet solution in 20% ethanol in water. Microscopic plaques were counted using a stereomicroscope. Drug effects were calculated as a percent reduction in the number of plaques in the presence of each drug concentration compared to the number observed in the absence of drug. Ganciclovir was used as a positive control in all experiments.
The EC50 values obtained according to this assay for certain thiazolyl derivatives of this invention are listed in the following tables under the heading PRA CMV.
On the technique in general: In a plaque reduction assay, fewer plaques than in the control indicate reduced infectivity or spread.

Setting [3] is: Human alphaherpesvirus 1, BHK-21, Group 1 Table 3 entries.
Where [4] appears, read: Human betaherpesvirus 5, AD169, Hs68, Group 1 Table 3 entries.
[5] abbreviates: Human alphaherpesvirus 1, BHK-21, Group 1 Table 1 entries.
Where [6] appears, read: Human betaherpesvirus 5, AD169, Hs68, Group 1 Table 1 entries.
[7] abbreviates: Human alphaherpesvirus 1, BHK-21, Group 1 Table 5 entries.
Where [8] appears, read: Human betaherpesvirus 5, AD169, Hs68, Group 1 Table 5 entries.
Setting [9] is: Human alphaherpesvirus 1, BHK-21, Group 1 Table 6 entries.
[10] abbreviates: Human betaherpesvirus 5, AD169, Hs68, Group 1 Table 6 entries.

Structures are written as SMILES. pEC50, pIC50: −log10 of the molar value. Bounds are passed on as bounds.

T1 sequence (P10192 whole entry): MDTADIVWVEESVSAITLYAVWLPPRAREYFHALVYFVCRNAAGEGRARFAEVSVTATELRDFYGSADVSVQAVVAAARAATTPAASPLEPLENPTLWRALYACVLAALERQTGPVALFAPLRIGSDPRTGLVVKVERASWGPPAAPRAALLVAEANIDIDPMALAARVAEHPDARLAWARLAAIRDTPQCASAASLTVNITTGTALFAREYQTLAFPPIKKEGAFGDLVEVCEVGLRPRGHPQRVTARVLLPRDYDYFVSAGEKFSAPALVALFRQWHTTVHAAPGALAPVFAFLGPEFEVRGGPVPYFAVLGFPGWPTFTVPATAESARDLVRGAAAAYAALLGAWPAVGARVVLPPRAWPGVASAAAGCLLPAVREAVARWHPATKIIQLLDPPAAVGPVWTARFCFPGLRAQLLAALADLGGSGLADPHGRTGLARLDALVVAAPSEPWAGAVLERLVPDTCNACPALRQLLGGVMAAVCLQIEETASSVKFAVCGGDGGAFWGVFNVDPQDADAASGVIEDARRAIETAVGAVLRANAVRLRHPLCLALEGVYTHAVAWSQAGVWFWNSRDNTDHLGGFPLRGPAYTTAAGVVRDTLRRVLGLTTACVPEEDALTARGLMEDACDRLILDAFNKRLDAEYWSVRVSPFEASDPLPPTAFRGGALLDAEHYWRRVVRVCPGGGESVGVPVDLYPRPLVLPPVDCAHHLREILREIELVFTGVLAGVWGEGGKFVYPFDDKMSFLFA
T1 sequence (P10236 whole entry): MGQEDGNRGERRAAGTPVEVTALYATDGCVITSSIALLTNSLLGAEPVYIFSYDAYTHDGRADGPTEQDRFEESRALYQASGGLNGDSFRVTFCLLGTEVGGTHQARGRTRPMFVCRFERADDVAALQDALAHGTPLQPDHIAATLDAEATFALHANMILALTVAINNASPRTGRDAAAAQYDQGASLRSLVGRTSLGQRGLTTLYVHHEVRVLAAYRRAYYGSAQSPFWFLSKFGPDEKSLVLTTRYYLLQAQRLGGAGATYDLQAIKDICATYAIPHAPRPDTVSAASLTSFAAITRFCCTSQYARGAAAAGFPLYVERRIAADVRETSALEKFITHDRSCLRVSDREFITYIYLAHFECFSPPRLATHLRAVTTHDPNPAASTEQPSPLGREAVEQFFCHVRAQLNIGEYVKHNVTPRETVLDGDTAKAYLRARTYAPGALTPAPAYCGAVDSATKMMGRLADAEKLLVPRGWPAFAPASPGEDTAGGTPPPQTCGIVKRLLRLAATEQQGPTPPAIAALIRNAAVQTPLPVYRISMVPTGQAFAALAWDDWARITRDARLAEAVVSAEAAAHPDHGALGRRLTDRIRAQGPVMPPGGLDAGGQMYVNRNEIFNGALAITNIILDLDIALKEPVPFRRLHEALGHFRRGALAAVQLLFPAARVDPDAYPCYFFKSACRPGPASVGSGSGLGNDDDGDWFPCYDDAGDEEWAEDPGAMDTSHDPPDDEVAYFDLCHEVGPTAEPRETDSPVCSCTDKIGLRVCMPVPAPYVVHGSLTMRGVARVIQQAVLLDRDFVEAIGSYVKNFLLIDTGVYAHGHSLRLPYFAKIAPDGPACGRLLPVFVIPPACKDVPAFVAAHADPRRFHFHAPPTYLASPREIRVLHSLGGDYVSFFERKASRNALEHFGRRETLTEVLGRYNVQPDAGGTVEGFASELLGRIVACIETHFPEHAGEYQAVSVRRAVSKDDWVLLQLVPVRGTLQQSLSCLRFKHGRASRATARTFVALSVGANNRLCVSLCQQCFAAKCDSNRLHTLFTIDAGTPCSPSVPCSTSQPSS
T1 sequence (P10189 whole entry): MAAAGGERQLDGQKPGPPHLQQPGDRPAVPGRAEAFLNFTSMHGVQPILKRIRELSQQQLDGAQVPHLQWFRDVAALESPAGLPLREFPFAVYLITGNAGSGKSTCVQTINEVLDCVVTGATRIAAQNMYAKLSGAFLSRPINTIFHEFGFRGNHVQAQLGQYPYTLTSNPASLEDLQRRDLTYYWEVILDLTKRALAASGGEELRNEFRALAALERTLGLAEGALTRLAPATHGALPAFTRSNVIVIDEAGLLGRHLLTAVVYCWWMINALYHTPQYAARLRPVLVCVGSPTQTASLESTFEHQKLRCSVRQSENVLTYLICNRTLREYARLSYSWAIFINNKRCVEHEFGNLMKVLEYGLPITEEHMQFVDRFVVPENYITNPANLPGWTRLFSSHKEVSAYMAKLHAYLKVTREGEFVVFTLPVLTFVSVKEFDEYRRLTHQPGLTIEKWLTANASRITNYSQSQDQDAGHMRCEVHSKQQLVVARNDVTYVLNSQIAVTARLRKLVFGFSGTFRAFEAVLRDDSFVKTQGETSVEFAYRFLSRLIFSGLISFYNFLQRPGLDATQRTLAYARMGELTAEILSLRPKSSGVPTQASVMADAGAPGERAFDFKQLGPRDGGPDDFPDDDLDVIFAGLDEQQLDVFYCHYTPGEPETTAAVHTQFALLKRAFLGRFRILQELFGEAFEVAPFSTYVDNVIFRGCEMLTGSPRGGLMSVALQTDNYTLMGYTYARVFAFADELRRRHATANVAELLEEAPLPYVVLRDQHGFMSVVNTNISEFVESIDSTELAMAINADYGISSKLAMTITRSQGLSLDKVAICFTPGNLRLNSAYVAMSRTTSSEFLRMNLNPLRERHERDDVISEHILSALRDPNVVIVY

On to `CN(C(=O)CN(Cc1ccccc1)C(=O)c1ccncc1)c1ccc(-c2csc(N)n2)cc1` [Example 2], for which the pIC50 on HSV-1 helicase-primase (Group 1 Table 3 entries) was 5.82. Also, the figures for the pEC50 in the assay with HSV-1 strain F or KOS (setting [3]) and with HCMV (strain AD169) [1] (setting [4]) were 6.47 and 4.11, respectively.
As to `Nc1nc(-c2ccc(NC(=O)CNCCc3ccccc3)cc2)cs1` [Example 2], the pIC50 at HSV-1 helicase-primase (Group 1 Table 1 entries) was 5.33. Besides, the pEC50 in the assay with HSV-1 strain F or KOS (setting [5]) was 5.22; in the assay on HCMV (strain AD169) [1] (setting [6]), 5.51.
On to `Nc1nc(-c2ccc(NC(=O)[C@@H](Cc3ccccc3)NC(=O)C3CCCCC3)cc2)cs1` [Example 2], for which the values for the pEC50 with HSV-1 strain F or KOS (setting [7]) and with HCMV (strain AD169) [1] (setting [8]) were 6.77 and 4.28, respectively.
Molecule `CN(C(=O)CNCc1ccccc1)c1ccc(-c2csc(N)n2)cc1` [Example 3] showed a pIC50 at HSV-1 helicase-primase (Group 1 Table 3 entries) of 4.89. Besides, the pEC50 is 5.40 in the assay with HSV-1 strain F or KOS (setting [3]) and 4.10 with HCMV (strain AD169) [2] (setting [4]).
Regarding `CC(C)(C)OC(=O)N1CCC[C@H]1C(=O)Nc1ccc(-c2csc(N)n2)cc1` [Example 4], on HSV-1 helicase-primase (Group 1 Table 6 entries), the pIC50 is 6.34. The figures for the pEC50 in the assay on HSV-1 strain F or KOS (setting [9]) and in the assay with HCMV (strain AD169) [1] (setting [10]) were 6.68 and < 4.19, respectively.
`Cc1nc(-c2ccc(NC(=O)CN(Cc3ccccc3)C(=O)C3CCCCC3)cc2)cs1` [Example 4] had a pIC50 on HSV-1 helicase-primase (Group 1 Table 3 entries) of 6.72. Besides, the pEC50 in the assay on HSV-1 strain F or KOS (setting [3]) is 6.92; with HCMV (strain AD169) [1] (setting [4]) it was 4.92.
Take `Nc1nc(-c2ccc(NC(=O)CNCc3ccc(F)cc3)cc2)cs1` [Example 4]: at HSV-1 helicase-primase (Group 1 Table 1 entries), the pIC50 was 5.46. The figures for the pEC50 in the assay on HSV-1 strain F or KOS (setting [5]) and in the assay on HCMV (strain AD169) [2] (setting [6]) were 5.74 and 4.80, respectively.
On HSV-1 helicase-primase (Group 1 Table 5 entries), `CN(C(=O)C1CCCCC1)[C@@H](Cc1ccccc1)C(=O)Nc1ccc(-c2csc(N)n2)cc1` [Example 5] gave a pIC50 of 6.66. Besides, the pEC50 with HSV-1 strain F or KOS (setting [7]) was 6.82; in the assay on HCMV (strain AD169) [1] (setting [8]), 5.02.
In turn, `Nc1nc(-c2ccc(NC(=O)[C@@H](Cc3ccccc3)NCc3ccccc3)cc2)cs1` [Example 7] had a pIC50 against HSV-1 helicase-primase (Group 1 Table 5 entries) of 5.18. Besides, the pEC50 is 5.68 in the assay on HSV-1 strain F or KOS (setting [7]) and > 5.05 in the assay with HCMV (strain AD169) [1] (setting [8]).
In the case of `Nc1nc(-c2ccc(NC(=O)[C@@H]3CCCN3Cc3ccccc3)cc2)cs1` [Example 7], the figures for the pEC50 with HSV-1 strain F or KOS (setting [9]) and with HCMV (strain AD169) [1] (setting [10]) were 5.96 and < 4.48, respectively.
Consider `CNc1nc(-c2ccc(NC(=O)CN(Cc3ccccc3)C(=O)C3CCCCC3)cc2)cs1` [Example 8], for which the pIC50 at HSV-1 helicase-primase (Group 1 Table 3 entries) was 7.30. Also, the pEC50 is 8.70 in the assay with HSV-1 strain F or KOS (setting [3]) and 5.05 in the assay on HCMV (strain AD169) [1] (setting [4]).
The molecule `Nc1nc(-c2ccc(NC(=O)CNCC3CCCCC3)cc2)cs1` [Example 8] had a pIC50 against HSV-1 helicase-primase (Group 1 Table 1 entries) of 5.54. The pEC50 is 5.10 with HSV-1 strain F or KOS (setting [5]) and 5.44 with HCMV (strain AD169) [1] (setting [6]).
With `CNc1nc(-c2ccc(NC(=O)CN(CC3CCCCC3)C(=O)c3cccnc3)cc2)cs1` [Example 9], at HSV-1 helicase-primase (Group 1 Table 3 entries), the pIC50 was 5.00. Besides, the pEC50 was 5.89 in the assay on HSV-1 strain F or KOS (setting [3]) and 5.30 in the assay on HCMV (strain AD169) [1] (setting [4]).
`Nc1nc(-c2ccc(NC(=O)CNC(=O)c3ccccn3)cc2)cs1` [Example 19] showed a pIC50 against HSV-1 helicase-primase (Group 1 Table 1 entries) of 4.89. For the same molecule, the pEC50 in the assay with HSV-1 strain F or KOS (setting [5]) is 5.35; in the assay with HCMV (strain AD169) [2] (setting [6]), 4.70.

Usually pIC50 stands for the negative decadic logarithm of the IC50, by convention in mol/L. In general, pEC50 refers to the negative decadic logarithm of the EC50, by convention in mol/L.

The values are drawn from patent US6288091A, “Antiherpes virus compounds and methods for their preparation and use” (Boehringer Ingelheim Ltd., priority 1999, dated 2001).
